# Measurements published in US20260115187A1, “TRICYCLIC SKELETON COMPOUND AND USE THEREOF IN PREPARATION OF ANTITUMOR DRUG” (ZHONGSHAN HOSPITAL, FUDAN UNIVERSITY, priority 2024, published 2026).
# Read-outs that look alike come from different tables or passages of the source.
# Assays:
# [1] = tested on: PLC/PRF/5 KSR2 OE (PLC cells overexpressing KSR2); assay: Cell IC50 assay (CCK8 cell viability), PLC/PRF/5 KSR2 OE; format: cell-based; details: Homo sapiens, read-out: IC50 value of cell viability, PLC/PRF/5 KSR2 OE (PLC cells overexpressing KSR2)
# Method: (§1) (1) Cell Preparation: Hepatoma cells (PLC/PRF/5, sourced from the Chinese Academy of Sciences; MHCC97H, sourced from this research institute) in good growth condition are prepared. The cells are trypsinized, diluted, and seeded into 96-well cell culture plates. 1,000-3,000 cells are added per well. The plates are then placed in a cell culture incubator at 37° C. with 5% CO2. Drugs are added after the cells have adhered for 24 h.
# (§2) (2) Drug Addition: The drugs are subjected to gradient dilution, typically setting 9 concentrations. Control groups containing no drug medium and medium containing only the drug solvent are also set up. The diluted drugs are added to the cell culture plates seeded the previous day. The plates are incubated for 72 h.
# (§3) (3) CCK8 Assay for Cell Viability: CCK8 is mixed with culture medium at a 1:10 ratio. 100 μL of this mixture is added to each well of the cell culture plate. After incubating for 2-4 h, the OD values are measured using a microplate reader.
# (§4) (4) Data Analysis: Based on the corresponding OD values, the data are compiled, IC50 curves are plotted, and the IC50 values are obtained.
# (§5) (5) IC50 Verification: The theoretical IC50 value is identified from the IC50 curve. Drug concentrations at ½ times, 1 time, and 2 times this theoretical value are used for verification.
# [2] = tested on: MHCC97H KSR2 OE (97H cells overexpressing KSR2); assay: Cell IC50 assay (CCK8 cell viability), MHCC97H KSR2 OE; format: cell-based; details: Homo sapiens
# Method: as §1, §2, §3, §4, §5
# [3] = read-out: IC50 value of cell viability, MHCC97H KSR2 OE (97H cells overexpressing KSR2)
# [4] = PLC-PRF-5, hepatoma cells, 72 h incubation, CCK8
# [5] = hepatoma cells, 72 h incubation, CCK8, read-out: IC50 value of cell viability, MHCC97H KSR2 OE (97H cells overexpressing KSR2)
Compound,"IC50 ([1]; PLC-PRF-5, 72 h) [µM]","IC50 [2, 3] [µM]","IC50 [1, 4] [µM]","IC50 [2, 5] [µM]"
Cn1nc(C(=O)NCCCN2CCN(C3CCC(F)(F)CC3)CC2)c2c1-c1ccccc1SC2 [Compound 1],45,41,–,–
Cn1nc(C(=O)NCCCN2CCN(C3CCOCC3)CC2)c2c1-c1ccccc1SC2 [Compound 2],84,> 100,–,–
Cn1nc(C(=O)NCCCN2CCN(C3CCCC3)CC2)c2c1-c1ccccc1SC2 [Compound 3],–,–,32,56
Cn1nc(C(=O)NCCCN2CCN(C3CC4(CCC4)C3)CC2)c2c1-c1ccccc1SC2 [Compound 4],–,–,22,15
Cn1nc(C(=O)NCCCN2CCN(CC3CC3)CC2)c2c1-c1ccccc1SC2 [Compound 5],25,44,–,–
Cn1nc(C(=O)NCCCN2CCN(C3CCC3)CC2)c2c1-c1ccccc1SC2 [Compound 6],42,70,–,–
Cn1nc(C(=O)NCCCN2CCN(C3CCCCC3)CC2)c2c1-c1ccccc1S(=O)(=O)C2 [Compound 7],–,–,85,88
Cn1nc(C(=O)NCCCN2CCN(C3CCCCC3)CC2)c2c1-c1ccccc1SC2 [Compound 8],61,62,–,–
Cn1nc(C(=O)NCCCN2CCN(Cc3ccccc3)CC2)c2c1-c1ccccc1SC2 [Compound 10],16,38,–,–
Cn1nc(C(=O)NCCN2CCN(C3CCCCC3)CC2)c2c1-c1ccccc1SC2 [Compound 11],35,62,–,–
CN(CCCN1CCN(C2CCCCC2)CC1)C(=O)c1nn(C)c2c1CSc1ccccc1-2 [Compound 12],–,–,56,86
Cn1nc(C(=O)NCCCN2CCC(N3CCCCC3)CC2)c2c1-c1ccccc1SC2 [Compound 13],–,–,2,2
CCn1nc(C(=O)NCCCN2CCN(C3CCCCC3)CC2)c2c1-c1ccccc1SC2 [Compound 14],–,–,39,14
O=C(NCCCN1CCN(C2CCCCC2)CC1)c1nn(CC2CC2)c2c1CSc1ccccc1-2 [Compound 15],–,–,10,39
Cn1nc(C(=O)NCCCN2CCN(C3CCCCC3)CC2)c2c1-c1ccccc1OC2 [Compound 16],–,–,26,46
Cn1nc(C(=O)NCCCN2CCN(C3CCCCC3)CC2)c2c1-c1ccccc1CC2 [Compound 17],–,–,21,57
Cn1nc(C(=O)NCC(O)CN2CCN(c3ccccc3)CC2)c2c1-c1ccccc1SC2 (centres unmarked) [Compound 18],–,–,42,40
Cn1nc(C(=O)NCCCN2CCN(c3ccccn3)CC2)c2c1-c1ccccc1SC2 [Compound 19],–,–,40,40
Cn1nc(C(=O)NCCCN2CCN(c3cccnc3)CC2)c2c1-c1ccccc1SC2 [Compound 20],–,–,29,32
Cn1nc(C(=O)NCCCN2CCN(c3ccncc3)CC2)c2c1-c1ccccc1SC2 [Compound 21],–,–,7,6
Cn1nc(C(=O)NCCCN2CCN(c3ccccc3Cl)CC2)c2c1-c1ccccc1SC2 [Compound 22],–,–,15,30
Cn1nc(C(=O)NCC(F)(F)CN2CCN(c3ccccc3)CC2)c2c1-c1ccccc1SC2 [Compound 23],–,–,8,8
Cn1nc(C(=O)NCCCN2CCN(c3cccc(Cl)c3)CC2)c2c1-c1ccccc1SC2 [Compound 24],–,–,18,39
Cn1nc(C(=O)NCCCN2CCN(c3ccc(Cl)cc3)CC2)c2c1-c1ccccc1SC2 [Compound 25],–,–,20,37
Cn1nc(C(=O)NCCCN2CCN(c3ccc(C(F)(F)F)cc3)CC2)c2c1-c1ccccc1SC2 [Compound 26],–,–,14,> 100

Compound,"IC50 ([1]; PLC-PRF-5, 72 h) [µM]","IC50 [2, 3] [µM]","IC50 [1, 4] [µM]","IC50 [2, 5] [µM]"
COc1ccc(N2CCN(CCCNC(=O)c3nn(C)c4c3CSc3ccccc3-4)CC2)cc1 [Compound 27],–,–,31,13
Cn1nc(C(=O)NCCCN2CCN(c3ncccn3)CC2)c2c1-c1ccccc1SC2 [Compound 28],–,–,11,31
Cn1nc(C(=O)NCCCN2CCN(c3ccc(C#N)cc3)CC2)c2c1-c1ccccc1SC2 [Compound 29],–,–,41,2
CN1CCN(C2CCN(CCCNC(=O)c3nn(C)c4c3CSc3ccccc3-4)CC2)CC1 [Compound 30],–,–,9,6
Cn1nc(C(=O)NCCCN2CCC(c3ccccc3)CC2)c2c1-c1ccccc1SC2 [Compound 31],–,–,21,19
Cn1nc(C(=O)NCCCN2CCC(O)(c3ccccc3)CC2)c2c1-c1ccccc1SC2 [Compound 32],–,–,17,16
CN1CCN(C2CCN(CC(F)(F)CNC(=O)c3nn(C)c4c3CSc3ccccc3-4)CC2)CC1 [Compound 33],–,–,19,18
Cn1nc(C(=O)NCC(F)(F)CN2CCC(N3CCCCC3)CC2)c2c1-c1ccccc1SC2 [Compound 34],–,–,12,14
Cn1nc(C(=O)NCC(F)(F)CN2CCC(N3CCOCC3)CC2)c2c1-c1ccccc1SC2 [Compound 35],–,–,28,22
Cn1nc(C(=O)NCCCN2CCC(N3CCCCC3)C(F)(F)C2)c2c1-c1ccccc1SC2 (centres unmarked) [Compound 36],–,–,62,71
Cn1nc(C(=O)NCC(F)(F)CN2CCC(N3CCC(F)(F)CC3)CC2)c2c1-c1ccccc1SC2 [Compound 37],–,–,19,28
Cn1nc(C(=O)NCCCN2CCC(N3CCCC3)CC2)c2c1-c1ccccc1SC2 [Compound 38],–,–,3,4
CC(CNC(=O)c1nn(C)c2c1CSc1ccccc1-2)CN1CCN(c2ccccc2)CC1 (centres unmarked) [Compound 40],–,–,21,> 100
Cn1nc(C(=O)NCCCN2CCC(N3CCNCC3)CC2)c2c1-c1ccccc1SC2 [Compound 41],–,–,8,7
Cn1nc(C(=O)NCCCN2CCC(N3CCOCC3)CC2)c2c1-c1ccccc1SC2 [Compound 42],–,–,43,39
Cn1nc(C(=O)NCCCN2CCC(N3CCC(F)(F)C3)CC2)c2c1-c1ccccc1SC2 [Compound 43],–,–,41,43
CCN1CCN(C2CCN(CCCNC(=O)c3nn(C)c4c3CSc3ccccc3-4)CC2)CC1 [Compound 44],–,–,2,0.2
CN(C)C1CCN(CCCNC(=O)c2nn(C)c3c2CSc2ccccc2-3)CC1 [Compound 45],–,–,5,6
Cn1nc(C(=O)NCCCN2CCC(N3CCC(O)C3)CC2)c2c1-c1ccccc1SC2 (centres unmarked) [Compound 46],–,–,2,6
Cn1nc(C(=O)NCCCN2CCC(N3CCC3)CC2)c2c1-c1ccccc1SC2 [Compound 47],–,–,2,4
Cn1nc(C(=O)N2CC(CN3CCC(N4CCCC4)CC3)C2)c2c1-c1ccccc1SC2 [Compound 49],–,–,7,7
CN1CCN(C2CCN(CCCNC(=O)c3nn(C)c4c3COc3ccccc3-4)CC2)CC1 [Compound 50],–,–,7,6
Cn1nc(C(=O)NCC2CC(N3CCC(N4CCCC4)CC3)C2)c2c1-c1ccccc1SC2 (centres unmarked) [Compound 51],–,–,1,1
CN(C)C1CCN(CCCNC(=O)c2nn(C)c3c2CSc2ccccc2-3)C1 (centres unmarked) [Compound 52],–,–,59,50
